Results published in BindingDB's records for doi:10.1016/j.bmcl.2008.04.044 (Wyeth Research, 2008).

Biological target: Insulin-like growth factor 1 receptor (Homo sapiens, UniProt P08069)
Assay: In Vitro Kinase Inhibition Assay
Details: pH 7.5; 22 °C
Protocol: Assays were performed in microtiter plates in reaction buffer containing biotinylated substrate, ATP, and purified kinase in the presence of test compounds. After incubation, product was detected using a homogeneous time-resolved fluorescence […] assay (LANCE).

Insulin-like growth factor 1 receptor, sequence (P08069 31-736 limits assumed): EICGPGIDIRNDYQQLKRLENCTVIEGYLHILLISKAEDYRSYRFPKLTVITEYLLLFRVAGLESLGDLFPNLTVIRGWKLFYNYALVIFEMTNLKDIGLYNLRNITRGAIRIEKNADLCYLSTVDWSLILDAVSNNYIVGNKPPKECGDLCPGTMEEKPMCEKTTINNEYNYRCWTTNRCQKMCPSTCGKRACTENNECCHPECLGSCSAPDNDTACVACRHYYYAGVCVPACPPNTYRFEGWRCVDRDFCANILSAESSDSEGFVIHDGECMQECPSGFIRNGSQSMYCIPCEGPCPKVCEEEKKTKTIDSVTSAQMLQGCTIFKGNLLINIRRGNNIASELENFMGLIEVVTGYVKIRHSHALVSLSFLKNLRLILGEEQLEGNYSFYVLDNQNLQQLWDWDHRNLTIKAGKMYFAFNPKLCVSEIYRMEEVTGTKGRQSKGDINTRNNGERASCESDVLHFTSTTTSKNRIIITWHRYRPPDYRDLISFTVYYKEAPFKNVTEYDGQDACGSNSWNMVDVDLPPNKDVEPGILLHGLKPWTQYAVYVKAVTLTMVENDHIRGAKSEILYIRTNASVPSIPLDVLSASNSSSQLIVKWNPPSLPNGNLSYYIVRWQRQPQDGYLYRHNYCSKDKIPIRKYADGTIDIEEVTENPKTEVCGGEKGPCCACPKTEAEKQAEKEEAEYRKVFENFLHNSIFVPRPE
Insulin-like growth factor 1 receptor, sequence (P08069 741-1367 limits assumed): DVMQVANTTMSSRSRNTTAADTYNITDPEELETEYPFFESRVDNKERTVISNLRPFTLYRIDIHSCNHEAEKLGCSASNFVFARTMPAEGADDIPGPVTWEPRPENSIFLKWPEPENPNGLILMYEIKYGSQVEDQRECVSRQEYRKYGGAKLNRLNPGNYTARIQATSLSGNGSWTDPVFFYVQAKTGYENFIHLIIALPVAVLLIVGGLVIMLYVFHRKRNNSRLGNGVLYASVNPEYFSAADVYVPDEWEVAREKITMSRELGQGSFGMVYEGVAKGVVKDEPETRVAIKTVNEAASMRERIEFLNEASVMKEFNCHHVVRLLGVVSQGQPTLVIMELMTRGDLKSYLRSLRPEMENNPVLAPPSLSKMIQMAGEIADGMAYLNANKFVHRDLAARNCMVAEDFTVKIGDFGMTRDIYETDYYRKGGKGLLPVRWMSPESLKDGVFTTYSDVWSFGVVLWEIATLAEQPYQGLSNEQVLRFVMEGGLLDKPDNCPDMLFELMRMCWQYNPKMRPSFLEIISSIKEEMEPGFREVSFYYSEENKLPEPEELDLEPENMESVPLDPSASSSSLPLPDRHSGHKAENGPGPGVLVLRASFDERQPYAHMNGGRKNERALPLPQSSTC

In the case of `O=C1NC(=O)c2ccc(Nc3cccc(C(F)(F)F)c3)cc2C1=CNc1ccc(CN2CCCCC2)cc1` [(4Z)-4-({[4-(piperidin-1-ylmethyl)phenyl]amino}methylidene)-6-{[3-(trifluoromethyl)phenyl]amino}-1,2,3,4-tetrahydroisoquinoline-1,3-dione], the IC50 is reported as greater than 10 µM.
`O=C1NC(=O)c2ccc(Nc3ccc4[nH]ccc4c3)cc2C1=CNc1ccc(CN2CCCCC2)cc1` [(4Z)-6-(1H-indol-5-ylamino)-4-({[4-(piperidin-1-ylmethyl)phenyl]amino}methylidene)-1,2,3,4-tetrahydroisoquinoline-1,3-dione] was tested, and the IC50 was greater than 10 µM.
`Nc1cccc(Nc2ccc3c(c2)C(=CNc2ccc(CN4CCCCC4)cc2)C(=O)NC3=O)c1` [(4Z)-6-[(3-aminophenyl)amino]-4-({[4-(piperidin-1-ylmethyl)phenyl]amino}methylidene)-1,2,3,4-tetrahydroisoquinoline-1,3-dione] gave an IC50 greater than 10 µM.
`O=C1NC(=O)c2ccc(Nc3cccc(Cl)c3)cc2C1=CNc1ccccc1` [(4Z)-6-[(3-chlorophenyl)amino]-4-[(phenylamino)methylidene]-1,2,3,4-tetrahydroisoquinoline-1,3-dione] gave an IC50 greater than 10 µM.
`COc1cccc(Nc2ccc3c(c2)C(=CNc2ccccc2)C(=O)NC3=O)c1` [(4Z)-6-[(3-methoxyphenyl)amino]-4-[(phenylamino)methylidene]-1,2,3,4-tetrahydroisoquinoline-1,3-dione] gave an IC50 greater than 10 µM.
In the case of `Cc1cccc(Nc2ccc3c(c2)C(=CNc2ccc(CN4CCCCC4)cc2)C(=O)NC3=O)c1` [(4Z)-6-[(3-methylphenyl)amino]-4-({[4-(piperidin-1-ylmethyl)phenyl]amino}methylidene)-1,2,3,4-tetrahydroisoquinoline-1,3-dione], the IC50 is reported as greater than 10 µM.
`O=C1NC(=O)c2ccc(Nc3ccc(Cl)cc3)cc2C1=CNc1ccc(CN2CCCCC2)cc1` [(4Z)-6-[(4-chlorophenyl)amino]-4-({[4-(piperidin-1-ylmethyl)phenyl]amino}methylidene)-1,2,3,4-tetrahydroisoquinoline-1,3-dione] gave an IC50 greater than 10 µM.
Work on `COc1cc(Nc2ccc3c(c2)C(=CNc2ccc(CN4CCCCC4)cc2)C(=O)NC3=O)cc(C(F)(F)F)c1` [(4Z)-6-{[3-methoxy-5-(trifluoromethyl)phenyl]amino}-4-({[4-(piperidin-1-ylmethyl)phenyl]amino}methylidene)-1,2,3,4-tetrahydroisoquinoline-1,3-dione] yielded an IC50 greater than 10 µM.
`CN(C)c1ccc(Nc2ccc3c(c2)C(=CNc2ccc(CN4CCCCC4)cc2)C(=O)NC3=O)cc1` [(4Z)-6-{[4-(dimethylamino)phenyl]amino}-4-({[4-(piperidin-1-ylmethyl)phenyl]amino}methylidene)-1,2,3,4-tetrahydroisoquinoline-1,3-dione] gave an IC50 greater than 10 µM.
`CCOC(=O)c1ccc(Nc2ccc3c(c2)C(=CNc2ccc(CN4CCCCC4)cc2)C(=O)NC3=O)cc1` [ethyl 4-{[(4Z)-1,3-dioxo-4-({[4-(piperidin-1-ylmethyl)phenyl]amino}methylidene)-1,2,3,4-tetrahydroisoquinolin-6-yl]amino}benzoate] was tested, and the IC50 was greater than 10 µM.
